The values below are quoted from earlier work in US20040167132A1, “Methods of treating conditions associted with an Edg-2 receptor” (priority 2003, published 2004).

One may read the Kd as the concentration at which binding is half-saturated.

For data set [1], the target named is Adrenergic β. As to conditions: radioligand; Wistar rat brain; historical value.
For data set [2], the target named is Adrenergic α1 non-selective.
In data set [3] the target is Serotonin 5-HT1, non-selective. As to conditions: radioligand; Wistar rat cerebral cortex; historical value.
The target in data set [4] is T1, Angiotensin AT2 (Homo sapiens, UniProt P50052).
T1 construct: expressed in transfected cells; host or cells: HeLa cells
T1 sequence (P50052 1-363): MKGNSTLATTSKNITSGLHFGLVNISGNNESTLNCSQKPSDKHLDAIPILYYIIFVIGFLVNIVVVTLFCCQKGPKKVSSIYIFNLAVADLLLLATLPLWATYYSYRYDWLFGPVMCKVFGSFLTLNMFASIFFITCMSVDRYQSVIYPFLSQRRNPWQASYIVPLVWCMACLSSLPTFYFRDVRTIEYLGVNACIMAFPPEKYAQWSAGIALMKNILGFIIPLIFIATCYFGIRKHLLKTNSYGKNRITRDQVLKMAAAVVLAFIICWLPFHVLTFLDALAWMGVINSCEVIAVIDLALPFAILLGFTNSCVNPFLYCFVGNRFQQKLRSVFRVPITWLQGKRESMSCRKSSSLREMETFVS
To be noted: radioligand; Human recombinant Hela cells; historical value.

Where a name gives a salt, the structure may show the parent alone.

`CCCc1ccccc1OCC(O)CNC(C)C` (stereo not shown) [^3H Dihydroaplenolol, Dihydroaplenolol]: the equilibrium dissociation constant (Kd) in data set [1] is 0.5 nM. Consider `COc1cc2nc(N3CCN(C(=O)c4ccco4)CC3)nc(N)c2cc1OC` [^3H Prazosin, Prazosin], for which the Kd in data set [2] was 0.29 nM. For `NCCc1c[nH]c2ccc(O)cc12` [^3H Serotonin (5-HT) Trifluoroacetate, Serotonin (5-HT) Trifluoroacetate], the dissociation constant (Kd) in data set [3] was 0.61 nM. For CGP-42112A [^125I CGP-42112A], in data set [4], the Kd was 0.012 nM.
